In US20260191858A1, “COMBINATION THERAPIES” (Kallyope, Inc., priority 2022, published 2026) one finds EC50 data, which are given here for 10 molecules.

For this experiment, the target named is T1, human GPR119 (hGPR119) (Homo sapiens, UniProt Q8TDV5).
T1 construct: expressed in transfected cells; host or cells: CHO-K1
T1 sequence (Q8TDV5 1-335): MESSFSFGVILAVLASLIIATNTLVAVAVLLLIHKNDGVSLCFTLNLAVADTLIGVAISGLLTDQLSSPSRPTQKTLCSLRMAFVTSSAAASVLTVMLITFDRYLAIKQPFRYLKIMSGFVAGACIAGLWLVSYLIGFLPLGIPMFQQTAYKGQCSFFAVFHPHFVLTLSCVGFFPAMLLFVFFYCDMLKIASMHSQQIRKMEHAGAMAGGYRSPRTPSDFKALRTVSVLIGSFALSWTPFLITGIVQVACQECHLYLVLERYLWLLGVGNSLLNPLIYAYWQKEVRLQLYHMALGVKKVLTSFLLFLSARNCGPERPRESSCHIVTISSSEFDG
Description: cAMP accumulation assay in CHO-K1 cells stably expressing hGPR119. The experiment is classed as cell-based. Conditions: cAMP HTRF, 60 minutes. As for the experimental part:
CHO-K1 cells stably expressing human GPR119 (hGPR119) were prepared by transfection of a GPR119-carrying plasmid using Lipofectamine 2000 (following manufacturer instructions). A stable cell line was established using the limiting dilution method with geneticine selection. Assay-ready frozen (ARF) cells were prepared and used throughout the study.
The assay was performed in a 384-well plate format using the CAMP Gs dynamic assay kit from Cisbio. ARF cells expressing hGPR119 were thawed, washed and then resuspended in CAMP stimulation buffer at a cell density of 1.1×10^6 cells/mL. Cells were plated at a density of ~10,000 cells/well (9 μL/well). Dose response curves for the tested compounds were prepared in a cAMP stimulation buffer, containing 0.1% Tween 80 at 4 fold the final concentration. The compounds were then transferred to the cell plates using BRAVO (3 μL/well) and the plates were incubated for 60 minutes at 37° C./5% CO2. Detection buffer (10 μL, prepared as described in the CAMP Gs dynamic kit) were added to each well, and the plates were incubated at ambient temperature for 1 hr.
RT-FRET was measured using a ClarioSTAR plate reader, calculating the ratio between emissions at 665 nm and 620 nm (HTRF ratio). The HTRF ratio for positive (Max) and negative (Min) controls were used to normalize HTRF data and generate values for % activity. EC50 and Max activity values were determined using a standard 4-parameter fit.
The term EC50 denotes the concentration that produces a half-maximal response. A high value points to weaker potency. `O=C(CC1(O)CN(C(=O)Cc2ccc(OCCCC3CCN(c4ncc(Cl)cn4)CC3)cc2F)C1)NCC(CO)(CO)CO` [Compound A71, 2-[1-[2-[4-[3-[1-(5-chloropyrimidin-2-yl)-4-piperidyl]propoxy]-2-fluoro-phenyl]acetyl]-3-hydroxy-azetidin-3-yl]-N-[3-hydroxy-2,2-bis(hydroxymethyl)propyl]acetamide] came in with an EC50 of at most 100 nM. For the molecule `O=C(Cc1ccc(OCCCC2CCN(c3ncc(Cl)cn3)CC2)cc1F)N1CC(CCNCC(CO)CO)C1` [Compound A27, 2-(4-(3-(1-(5-chloropyrimidin-2-yl)piperidin-4-yl)propoxy)-2-fluorophenyl)-1-(3-(2-((3-hydroxy-2-(hydroxymethyl)propyl)amino)ethyl)azetidin-1-yl)ethan-1-one], the EC50 is at most 100 nM.

`O=C(CC1CN(C(=O)Cc2c(F)cc(OCCCC3CCN(c4ncc(Cl)cn4)CC3)cc2F)C1)NCC(O)(CO)CO` [Compound A9, 2-[1-[2-[4-[3-[1-(5-chloropyrimidin-2-yl)-4-piperidyl]propoxy]-2,6-difluoro-phenyl]acetyl]azetidin-3-yl]-N-[2,3-dihydroxy-2-(hydroxymethyl)propyl]acetamide] gave an EC50 of at most 100 nM. With `CCCc1cnc(N2CCC(CCCOc3cc(F)c(CC(=O)N4CC(CNCC(O)(CO)CO)C4)c(F)c3)CC2)nc1` [Compound A45, 2-(2,6-difluoro-4-(3-(1-(5-propylpyrimidin-2-yl)piperidin-4-yl)propoxy)phenyl)-1-(3-(((2,3-dihydroxy-2-(hydroxymethyl)propyl)amino)methyl)azetidin-1-yl)ethan-1-one] the figure was at most 100 nM.

With `O=C(NC[C@H](O)[C@@H](O)[C@H](O)[C@H](O)CO)C1CN(C(=O)Cc2ccc(OCCCC3CCN(c4ncc(Cl)cn4)CC3)cc2F)C1` (racemic) [Compound A10, 1-[2-[4-[3-[1-(5-chloropyrimidin-2-yl)-4-piperidyl]propoxy]-2-fluoro-phenyl]acetyl]-N-[rac-(2S,3R,4R,5R)-2,3,4,5,6-pentahydroxyhexyl]azetidine-3-carboxamide], the EC50 lay within 100 to 1000 nM. `O=C(NC(CO)(CO)CO)C1CN(C(=O)Cc2ccc(OCCCC3CCN(c4ncc(Cl)cn4)CC3)cc2F)C1` [Compound A4, 1-[2-[4-[3-[1-(5-chloropyrimidin-2-yl)-4-piperidyl]propoxy]-2-fluoro-phenyl]acetyl]-N-[2-hydroxy-1,1-bis(hydroxymethyl)ethyl]azetidine-3-carboxamide] gave an EC50 of at most 100 nM.

Molecule `CCc1cnc(N2CCC(CCCOc3ccc(CC(=O)N4CC(CNCC(CO)CO)C4)c(F)c3)CC2)nc1` [Compound A32, 2-(4-(3-(1-(5-ethylpyrimidin-2-yl)piperidin-4-yl)propoxy)-2-fluorophenyl)-1-(3-(((3-hydroxy-2-(hydroxymethyl)propyl)amino)methyl)azetidin-1-yl)ethan-1-one] came in with an EC50 of 100 to 1000 nM.

In the case of `CCCc1cnc(N2CCC(CCCOc3ccc(CC(=O)N4CC(CNCC(O)(CO)CO)C4)c(F)c3)CC2)nc1` [Compound A41, 1-(3-(((2,3-dihydroxy-2-(hydroxymethyl)propyl)amino)methyl)azetidin-1-yl)-2-(2-fluoro-4-(3-(1-(5-propylpyrimidin-2-yl)piperidin-4-yl)propoxy)phenyl)ethan-1-one], the EC50 is at most 100 nM. The result for `O=C(CC1CN(C(=O)Cc2ccc(OCCCC3CCN(c4ncc(Cl)cn4)CC3)cc2F)C1)NC(CO)(CO)CO` [Compound A7, 2-[1-[2-[4-[3-[1-(5-chloropyrimidin-2-yl)-4-piperidyl]propoxy]-2-fluoro-phenyl]acetyl]azetidin-3-yl]-N-[2-hydroxy-1,1-bis(hydroxymethyl)ethyl]acetamide] reads 100 to 1000 nM; that for `O=C(NCCCS(=O)(=O)O)C1CN(C(=O)Cc2ccc(OCCCC3CCN(c4ncc(Cl)cn4)CC3)cc2F)C1` [Compound A64, 3-[[1-[2-[4-[3-[1-(5-chloropyrimidin-2-yl)-4-piperidyl]propoxy]-2-fluoro-phenyl]acetyl]azetidine-3-carbonyl]amino]propane-1-sulfonic acid], at most 100 nM.
